This assay relates to 1321-N1. Nature of the assay: Selectivity for human FFA1 receptor expressed in human 1321N1 cells over 5HT6 receptor. It counts as cell-based.

In ChEMBL document CHEMBL1828561, “Identification of a potent and selective free fatty acid receptor 1 (FFA1/GPR40) agonist with favorable physicochemical and in vitro ADME properties” (J Med Chem, 2011) one finds Selectivity ratio data, which are given here for 1 compound.

Take `O=C(O)CCc1ccc(C#Cc2cc(Cl)nc(Cl)c2)cc1`: the Selectivity ratio is more than 100.
